In patent US20230130103A1, “TARGETED PHARMACOLOGICAL THERAPEUTICS IN UVEAL MELANOMA” (Washington University, priority 2017, published 2023):
pEC50, pIC50: −log10 of the molar value. Starred links: 1 amine or outer side, 2 acyl side, 3 side chain; linkers in the order of their positions; H or OH if unused. Positions of bridges follow the written chain, without caps; N, C: chain ends. Non-standard residues stand in square brackets, D forms with d. Residues, ends and D or L forms follow the SMILES beside them. *: point of attachment. Leu(3R-OH,Nα-propionyl) = CCC(=O)N[C@H](C(=O)*)[C@H](O)C(C)C; X1 = CC(C)[C@@H](O[*:3])[C@H](N[*:1])C(=O)[*:2]; X2 = CC(C)[C@H](O[*:3])[C@@H](N[*:1])C(=O)[*:2]; NMeaThr = CN[C@H](C(=O)O)[C@H](C)O; dPhLac = O=C(O)[C@H](O)Cc1ccccc1; NMeA = CN[C@@H](C)C(=O)O; NMeDha = C=C(NC)C(=O)O

How the values were obtained:
[1] = test system: 92.1 cells; assay: Flow cytometry of DNA content (proliferation and apoptosis); conditions: 3 d, FIG. 4C-D
Description: (§5) Cells were cultured at 37.0 in 5% CO2. […] Cell lines were grown in RPMI 1640 medium (Life Technologies, Carlsbad, Calif.) supplemented with 10% FBS and antibiotics. Cell viability was measured using a water-soluble tetrazolium salt, WTS-8 (Bimake, Houston, Tex.), following the manufacturer's protocol. Flow cytometry for analysis of cell proliferation and apoptosis was performed at the Siteman Cancer Center Flow Cytometry Core on a FACScan analyzer (BD Biosciences, San Diego Calif., USA) using a standard propidium iodide staining protocol as described previously (44).

[2] = test system: Mel202 cells; assay: as above; conditions: 3 d, FIG. 4C-D
Description: as §5

[3] = test system: constitutively active Gαq; assay: SRE(L) promoter-driven transcriptional reporter; format: cell-based; conditions: driven by constitutively active Gαq; FIG. 1D; read-out: IC50, inhibition of transcriptional reporter induction
Description: (§1) (FIG. 1A-1C) depicts the effect of FR on the activity state of Gα subunits as determined by interaction with Gβγ or RGS domains in split luciferase complementation assays. FIG. 1A Effect of FR on interaction of Gβγ2 with the indicated wild type (WT) or mutant constitutively active (Q/L) forms of Gα (q) or Gα13 (13). * p<0.01; ** p<0.05. FIG. 1B Potency of FR as a driver of interaction of Gβγ2 with wild type or mutant constitutively active Gαq. FIG. 1C Potency of FR as inhibitor of interaction of RGS2 with mutant constitutively active (Q/L) Gαq, or interaction of the RGS domain of LARG (LARG-RGS) with mutant constitutively active Gα13. FIG. 1D Potency of FR as inhibitor of signal transduction by constitutively active Gαq or Gα13 detected with an SRE(L) promoter-driven transcriptional reporter. Constitutively active Gαq (Q/L), constitutively active Gαq bearing the indicated FR binding site mutations, and constitutively Gα13 (Q/L) were studied.
(§2) Assays of transcriptional reporters driven by YAP or Gα subunits were performed as described (42, 43). YAP- or Ga-driven firefly luciferase activity was normalized to Renilla luciferase expressed from a constitutive promoter.

[4] = test system: constitutively active Gα13; assay: SRE(L) promoter-driven transcriptional reporter; format: cell-based; conditions: driven by constitutively active Gα13
Description: as §1, §2

[5] = test system: constitutively active Gαq bearing FR binding site mutations; assay: SRE(L) promoter-driven transcriptional reporter; format: cell-based; conditions: read-out: IC50, inhibition of transcriptional reporter induction
Description: as §1, §2

[6] = target: T1, wild type Gα13 with Gβγ2 (Homo sapiens, UniProt Q14344); assay: Split luciferase complementation, Gα interaction with Gβγ2; format: cell-based; conditions: FIG. 1A
T1 construct: expressed in transfected cells; host or cells: HEK-293
Description: as §1
(§3) To detect protein-protein interactions, a split luciferase complementation assays was used (23), as employed to study activation state-dependent interaction between Gα subunits and cognate binding partners (24).
(§4) Split luciferase assays were performed as described (24). The N-terminal portion of click beetle green luciferase (CBGN) was inserted into the αB-αC loop within the helical domain of wild type (WT) and constitutively active (Q/L) mutant forms of Gα and Gα13. Insertion of foreign proteins at this site preserves Gαfunction (40). The C-terminal region of click beetle green luciferase (CBGC) was fused to the N-termini of G131 (which was co-expressed with untagged Gγ2), RGS2, and the RGS domain of LARG, which interacts with Gal 3 only in the active GTP-bound state (41). HEK-293 cells transiently transfected with various combinations of tagged proteins were treated 18 h with vehicle(DMSO) or FR and luciferase assays were performed to measure reconstituted luciferase activity.

[7] = target: T2, constitutively active Gα13 with Gβγ2 (Homo sapiens, UniProt Q14344, Q226L); assay: as above; format: cell-based; conditions: FIG. 1A
T2 construct: expressed in transfected cells; host or cells: HEK-293
T2 sequence (Q14344 1-377 Q226L): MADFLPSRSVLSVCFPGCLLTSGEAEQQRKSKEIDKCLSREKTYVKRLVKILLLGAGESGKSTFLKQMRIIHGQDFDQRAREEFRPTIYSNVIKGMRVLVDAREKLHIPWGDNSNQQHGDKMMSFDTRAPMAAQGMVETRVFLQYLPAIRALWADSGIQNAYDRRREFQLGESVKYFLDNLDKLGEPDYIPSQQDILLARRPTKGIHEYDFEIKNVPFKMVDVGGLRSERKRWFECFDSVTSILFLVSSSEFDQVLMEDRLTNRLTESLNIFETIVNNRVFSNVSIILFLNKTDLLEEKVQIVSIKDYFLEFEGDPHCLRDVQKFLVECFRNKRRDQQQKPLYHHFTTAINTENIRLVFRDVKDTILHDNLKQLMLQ
Description: as §1, §3, §4

[8] = target: T3, wild type Gαq interacting with Gβγ2 (Homo sapiens, UniProt P50148); assay: as above; format: cell-based; conditions: HEK-293 cells, 18 h, FIG. 1B, read-out: EC50, increase of split luciferase complementation
T3 construct: expressed in transfected cells; host or cells: HEK-293
Description: as §1, §3, §4

[9] = target: T4, Gαi/q (Homo sapiens, UniProt P63096, K54R/C351G, form not given); format: cell-based; conditions: read-out: IC50, attenuation of cannabinoid type 1 receptor inhibition of forskolin-induced cAMP accumulation; via Gαi/q; Neuro2A cells, PTX-treated; FIG. 2C
T4 construct: other: via Gαi/q; the eight substituted residues copy Gαq (GNAQ) but are point changes, not a fused part of Gαq
T4 sequence (P63096 whole entry V50I/K54R/Y69F/V72L/K180P/V185I/T187Y/H188P/C351G, form open, the tested form may be a part): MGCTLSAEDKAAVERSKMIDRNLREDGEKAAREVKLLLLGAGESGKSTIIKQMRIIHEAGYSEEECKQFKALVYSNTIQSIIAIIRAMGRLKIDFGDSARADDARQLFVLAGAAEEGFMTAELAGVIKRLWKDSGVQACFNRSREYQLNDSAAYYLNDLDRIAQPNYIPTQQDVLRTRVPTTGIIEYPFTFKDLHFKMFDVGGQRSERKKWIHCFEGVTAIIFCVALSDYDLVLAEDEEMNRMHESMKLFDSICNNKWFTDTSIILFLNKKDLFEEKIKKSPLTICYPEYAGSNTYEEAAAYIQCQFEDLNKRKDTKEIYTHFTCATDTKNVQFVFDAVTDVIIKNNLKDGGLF

T1 sequence (P59768 2-68): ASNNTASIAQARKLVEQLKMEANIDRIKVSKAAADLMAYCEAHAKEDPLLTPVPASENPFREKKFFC
T1 sequence (Q14344 whole entry): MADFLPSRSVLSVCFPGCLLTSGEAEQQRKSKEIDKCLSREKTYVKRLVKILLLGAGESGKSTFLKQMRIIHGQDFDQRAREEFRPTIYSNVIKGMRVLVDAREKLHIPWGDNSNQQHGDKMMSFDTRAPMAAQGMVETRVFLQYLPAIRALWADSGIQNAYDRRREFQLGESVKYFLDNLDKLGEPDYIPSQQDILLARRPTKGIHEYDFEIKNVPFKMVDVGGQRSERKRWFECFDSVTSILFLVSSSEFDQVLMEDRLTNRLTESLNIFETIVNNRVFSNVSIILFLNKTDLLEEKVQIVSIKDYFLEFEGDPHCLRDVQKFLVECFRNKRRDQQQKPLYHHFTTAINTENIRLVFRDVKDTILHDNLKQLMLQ
T1 sequence (P62873 whole entry, further chain): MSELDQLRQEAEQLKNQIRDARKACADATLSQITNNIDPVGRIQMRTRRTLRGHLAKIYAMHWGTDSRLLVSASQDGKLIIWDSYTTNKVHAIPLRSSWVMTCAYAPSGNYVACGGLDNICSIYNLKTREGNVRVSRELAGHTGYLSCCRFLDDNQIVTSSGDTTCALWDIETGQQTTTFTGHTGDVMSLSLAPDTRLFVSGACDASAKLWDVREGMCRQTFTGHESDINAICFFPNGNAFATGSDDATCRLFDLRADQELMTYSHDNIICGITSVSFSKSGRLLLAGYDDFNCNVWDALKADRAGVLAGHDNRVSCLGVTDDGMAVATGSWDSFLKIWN
T3 sequence (P50148 whole entry): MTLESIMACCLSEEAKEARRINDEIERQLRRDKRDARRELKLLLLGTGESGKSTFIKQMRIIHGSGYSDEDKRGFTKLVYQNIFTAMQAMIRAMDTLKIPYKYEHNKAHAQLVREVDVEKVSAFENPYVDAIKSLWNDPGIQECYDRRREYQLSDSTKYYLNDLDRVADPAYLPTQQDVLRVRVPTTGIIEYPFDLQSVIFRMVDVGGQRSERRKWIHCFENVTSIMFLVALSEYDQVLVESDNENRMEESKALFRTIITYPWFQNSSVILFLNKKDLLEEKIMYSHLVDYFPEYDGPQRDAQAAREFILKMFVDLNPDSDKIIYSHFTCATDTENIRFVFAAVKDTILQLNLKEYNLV
T3 sequence (P59768 2-68, further chain): as the sequence (P59768 2-68) above
T3 sequence (P62873 whole entry, further chain): as the sequence (P62873 whole entry, further chain) above

In the case of C=C1C(=O)N[C@@H](C)C(=O)N(C)[C@@H](C)C(=O)N[C@H]([C@@H](OC(=O)[C@@H](NC(=O)CC)[C@H](O)C(C)C)C(C)C)C(=O)N(C)[C@@H]([C@H](C)OC)C(=O)O[C@H](C(C)C)[C@H](NC(C)=O)C(=O)O[C@H](Cc2ccccc2)C(=O)N1C [FR, [(1S)-1-[(3S,6R,9S,12S,18R,21S,22R)-21-acetamido-18-benzyl-3-[(1S)-1-methoxyethyl]-4,9,10,12,16-pentamethyl-15-methylidene-2,5,8,11,14,17,20-heptaoxo-22-propan-2-yl-1,19-dioxa-4,7,10,13,16-pentazacyclodocos-6-yl]-2-methylpropyl] (2S,3R)-3-hydroxy-4-methyl-2-(propanoylamino)pentanoate] (Ac-[X1][dPhLac][NMeDha]A[NMeA][X2](Leu(3R-OH,Nα-propionyl))[NMeaThr](Me); ester 1-C), the “apoptosis (sub-G1/G0 cells)” value [1] was “increased levels of sub-G1/G0 cells”, the “cell cycle inhibition (decreased levels of S- and G2/M-phase cells)” value [1] was “induced cell cycle inhibition” and the “apoptosis (sub-G1/G0 cells)” value [2] was “increased levels of sub-G1/G0 cells”. For the same molecule, the “cell cycle inhibition (decreased levels of S- and G2/M-phase cells)” value [2] was “induced cell cycle inhibition”, the pIC50 [3] was 9.00 and the “effect on expression of the transcriptional reporter” value [4] was “no effect”. For the same molecule, the pIC50 [5] was 7.15 to 7.52, the “effect on interaction with Gβγ2” value [6] was “lack of effect” and the “effect on interaction with Gβγ2” value [7] was “lack of effect”. It also gave a pEC50 [8] of 8.52 and a pIC50 [9] of 7.60.
